Patent EP0563386A1, “ANTICANCER COMPOSITION AND COMPOUND” (NIPPON SHINYAKU COMPANY, LIMITED, priority 1990, dated 1992)

How the values were obtained:
[1] = system: WiDr (human colon cancer); assay: Tumor growth inhibition, WiDr implant in nude mice (Test Example 1); type: in vivo, BALB/c nude mice; settings: implant volume on day 18 after transplantation divided by volume at transplantation; irsogladine maleate 10 mg/kg orally once daily from day 14; cyclophosphamide 150 mg/kg intraperitoneally once on day 14; groups of 10
Protocol: WiDr (human colon cancer) cells subcultured in BALB/c nude mice were dissected to prepare cubes, about 2 mm³ each. These cubes were transplanted subaxillarily into separate BALB/c nude mice using a transplantation needle. The animals were divided into groups of 10 individuals on day 10 after transplantation and the body weight and the diameter of the implant were serially determined. As the compound of this invention, irsogladine maleate, 10 mg/kg, was suspended in 0.5% methylcellulose solution and administered orally once daily beginning day 14 after transplantation. Cyclophosphamide, 150 mg/kg, was dissolved in PBS and administered intraperitoneally once on day 14 after transplantation. The control group received 0.5% methylcellulose solution orally once daily beginning day 14 after transplantation.
The volume of the implant on day 18 after transplantation was divided by the volume at trans plantation. […]
The effect of the compound of this invention as an anticancer agent is clear.

Meth A fibrosarcoma = Meth A fibrosarcoma tumor volume in mice (Test Example 2); type: in vivo, BALB/c mice; settings: Test (2): start tumor volume 160-180 mm³; irsogladine maleate 10 mg/kg or 5-fluorouracil 30 mg/kg orally; Fig. 2
Protocol: • (1) The homologus tumor Meth A fibrosarcoma subcultured (ascites type) in BALB/c mice, 5 x 10^5 cells, was transplanted subcutaneously at the flank of 6-week-old male BALB/c mice. Mice having a tumor volume of 70-100 mm³ were selected and divided into groups of 9. Oral single daily administration of the test compound was started and the body weight and tumor volume were serially determined. The volume was determined using the same calculation formula as shown in Test Example 1. The compound of the invention irsogladine maleate, 10 mg/kg, suspended in 0.5% methylcellulose maleate and 5-fluorouracil, 15 mg/kg, dissolved in 0.5% methylcellulose solution were respectively administered orally. The control group received 0.5% methylcellulose solution orally. […] The effect of the com pound of this invention as an anticancer agent is, thus, clear. • (2) As in the above test, mice having a tumor volume of 160-180 mm³ were selected and subjected to the same test as above. The compound of this invention irsogladine maleate, 10 mg/kg, 5-flurorouracil, 30 mg/kg, or as a combination therapy, irsogladine maleate, 10 mg/kg, plus 5-fluorouracil, 30 mg/kg, were administered orally. The control group received the same control material as in the above test orally. […] The anticancer adjuvant activity of the compound of this invention to 5-FU is clear.
The open circle stands for control, the open triangle for 5-FU and the closed circle for the compound of the invention. The tumor volume (mm³) is plotted on the vertical axis and the number of days after drug administration on the horizontal axis.
The open circle stands for control, the open triangle for F-5U, the closed circle for the compound of the invention, the open square for the combination therapy. The tumor volume (mm³) is plotted on the vertical axis and the number of days after drug administration on the horizontal axis.

For `O=P1(N(CCCl)CCCl)NCCCO1` (centres unmarked) [Cyclophosphamide, reference compound], the Tumor volume ratio [1] was 1.52 ± 0.06.

`O=c1[nH]cc(F)c(=O)[nH]1` [5-FU, 5-fluorouracil, reference compound] was tested, and the “tumor-inhibitory effect, single drug” value (Meth A fibrosarcoma) was “tumor-inhibitory effect”.
